The record followed here is patent US5217952A, “Peptides WS-9326a and WS-9326b, derivatives thereof and uses thereof” (Fujisawa Pharmaceutical Co., Ltd., priority 1988, dated 1993).

Data set [1] deals with contractile responses of guinea pig trachea induced by substance P (SP). In words: Contractile response of guinea pig trachea induced by substance P. The following applies: for IC50: read-out: IC50 (M), SP 10^-8 M induced contraction.
Experimental: (§3) Tracheal spiral strips were prepared from adult, male, albino Hartley strain guinea pigs (600 g) according to standard technique and placed in jacketed 30 ml glass tissue bath. […] Tracheal strips (2 mm width and 50 mm length) were suspended under a resting tension of 500 mg in 30 ml organ baths containing warm (37° C.) oxygenated (95% O2 : 5% CO2) Tyrode solution of following composition: NaCl 137 mM (8 g/liter), KCl 2.7 mM (0.2 g/liter), CaCl2 ·2H2 O 1.8 mM (0.264 g/liter), MgCl2 ·6H2 O 1.02mM (0.208 g/liter), NaHCO3 11.9 mM (1 g/liter), NaH2 PO4 ·2H2 O 0.42 mM (0.066 g/liter) and glucose 5.5 mM (1 g/liter).
Data set [2] relates to neurokinin A induced bronchoconstriction. In words: Neurokinin A induced bronchoconstriction, drug iv. The following applies: 10 mg/kg, n:5. The data set is classed as in vivo, guinea-pigs. Here is the method: (§1) Male Hartley strain guinea-pigs weighing 300-500 g were immobilized with sodium pentobarbital (10 mg/animal administered intraperitoneally). The jugular vein was cannulated for administration of neurokinin A (or capsaicin) and drug. A catheter was also intubated into trachea for artifical ventilation. The animal was respirated by means of a miniature respiration pump (HARVARD B-34, 5 ml/stroke, 60 strokes/minute). Resistance to lung inflation was measured by a modification of Konzett-Rossler overflow technique.
(§2) Agonist was administered iv and the antagonist drug (prepared in 0.1% methyl cellulose-saline) was administered iv as shown below. [drawing 7]

Data set [3] shares this test system. Briefly: Neurokinin A induced bronchoconstriction, intratrachea administration. The data set is classed as in vivo, guinea-pigs. The following applies: for Inhibition (%) of neurokinin A response / ED50 mg/kg, inhibition of neurokinin A response: NKA 1 n mol/kg iv; for Effect of intratrachea administration on neurokinin A induced bronchoconstriction (in words): dissolved in DMSO; for Effect of intratrachea administration on neurokinin A induced bronchoconstriction (in words) / ED50 mg/kg, inhibition of neurokinin A response: intratrachea. As for the experimental part: as §1
The method was almost same as mentioned above.

For data set [4], the system named is acetic acid induced writhing. Briefly: Analgesic action, acetic acid induced writhing. Format: in vivo. The following applies: male ddY mice; intraperitoneally 15 minutes before acetic acid. As for the experimental part: Ten male ddY strain mice were used par group. To estimate the frequency of writhing syndrome, the animals were observed from 3 to 13 minutes after an intraperitoneal injection of 0.2 ml/10 g of 0.6% acetic acid. […] The frequency of writhing syndrome in the treated animals was compared with that in the non-treated control animals.
Background: Writhing tests count abdominal constrictions after an irritant is injected.

The test system of data set [5] is contractile responses of guinea pig trachea induced by neurokinin A (NKA). In words: Contractile response of guinea pig trachea induced by neurokinin A.
Experimental: as §3
Data set [6] deals with capsaicin induced bronchoconstriction. Briefly: Capsaicin induced bronchoconstriction, drug iv. Format: in vivo, guinea-pigs. The following applies: 10 mg/kg, n:4. Here is the method: as §1, §2
A short description of data set [7]: Acute toxicity, single intraperitoneal injection. The following applies: mouse, in vivo, ip, ddY mice, male. Here is the method:
Acute toxicity of WS-9326A was determined in ddY mice (5 weeks old, male) by a single intraperitoneal injection of graded dose of test compound into 5 mice.

Data set [8] can be described thus: Solubility (physical and chemical properties). Format: physicochemical.
Data set [9] has as its target T1, specific [^3 H] substance P binding to guinea pig lung membranes (Cavia porcellus, UniProt P30547).
T1 construct: The trachea and lungs were removed, and stored at -80° C. until use; from tissue; host or cells: guinea pig trachea and lung crude membrane fraction
Briefly: ^3H-Substance P binding to guinea pig lung membranes (radioligand binding assay). The following applies: 3H-Substance P 1 nM, 4° C., 30 minutes, read-out: IC50 (M) lung, displacement of specific [3H] substance P binding.
Experimental: Male albino Hartley strain guinea pigs (600 g) were sacrificed by decapitation. The trachea and lungs were removed, and stored at -80° C. until use. […] The tissue was homogenized with a Ultra-Disperser (YAMATO, MODEL LK-21) at a setting of maximum range for 10-s at 10-s intervals with cooling between homogenizations (total homogenization's time: 60 seconds). The homogenate was centrifuged (900×g for 10 min.) to remove tissue supernatant centrifuged at 14000×g for 20 min. to yield pellets which were referred to as crude membrane fractions. The pellets were resuspended in Medium I, homogenized with a teflon homogenizer and centrifuged at 14000×g for 20 min. The pellets were stored at -20° C.
^3 H-Substance P (1 nM, New England Nuclear) was incubated with 50 μl of the membrane preparation in medium I at 4° C. for 30 minutes in a final volume of 250 μl. At the end of the incubation period, its contents were quickly filtered over a whatmann GF/B glass fibre filter (pretreated with 0.1% polyethyleneimine for 3 hours prior to use) using cell harvester (BRANDEL M-24S). The filters were then washed ten times with a total of 3 ml of the washing buffer (50 mM Tris-HCl pH 7.5) at 0° C. The radioactivity was counted in 3 ml of Aquazol-2 in Packard sintillation counter (PACKARD TRI-CARB 4530).

Setting [10] is: intratrachea 0.03 mg/kg in DMSO, 20 minutes.
Setting [11] is: intratrachea 0.03 mg/kg in DMSO, 35 minutes.
[12] abbreviates: intratrachea 0.03 mg/kg in DMSO, 50 minutes.
The mark [13] stands for this setting: intratrachea 0.03 mg/kg in DMSO, 65 minutes.
Where [14] appears, read: intratrachea 0.3 mg/kg in DMSO, 20 minutes.
The mark [15] stands for this setting: intratrachea 0.3 mg/kg in DMSO, 35 minutes.
Setting [16] is: intratrachea 0.3 mg/kg in DMSO, 50 minutes.
The mark [17] stands for this setting: intratrachea 0.3 mg/kg in DMSO, 65 minutes.

Numbered stars: 1 amine (or outer) side, 2 acyl side, 3 side chain; on linkers, the order of the positions; unused ones are H or OH. Bridge positions count the residues as written; N and C are the ends. Square brackets hold non-standard residues; d marks the D form. Peptide text beside a SMILES is read from it. * marks the point of attachment. Cinnamoyl(2-(1Z-pentenyl)) = CCC/C=C\c1ccccc1/C=C/C(=O)*; X1 = CN(/C(=C/c1ccc(O)cc1)C(=O)[*:2])[*:1]; NMeY = CN[C@@H](Cc1ccc(O)cc1)C(=O)O; aThr = C[C@H](O)[C@H](N)C(=O)O; X2 = CCCCCc1ccccc1CCC(=O)*

T1 sequence (P30547 whole entry): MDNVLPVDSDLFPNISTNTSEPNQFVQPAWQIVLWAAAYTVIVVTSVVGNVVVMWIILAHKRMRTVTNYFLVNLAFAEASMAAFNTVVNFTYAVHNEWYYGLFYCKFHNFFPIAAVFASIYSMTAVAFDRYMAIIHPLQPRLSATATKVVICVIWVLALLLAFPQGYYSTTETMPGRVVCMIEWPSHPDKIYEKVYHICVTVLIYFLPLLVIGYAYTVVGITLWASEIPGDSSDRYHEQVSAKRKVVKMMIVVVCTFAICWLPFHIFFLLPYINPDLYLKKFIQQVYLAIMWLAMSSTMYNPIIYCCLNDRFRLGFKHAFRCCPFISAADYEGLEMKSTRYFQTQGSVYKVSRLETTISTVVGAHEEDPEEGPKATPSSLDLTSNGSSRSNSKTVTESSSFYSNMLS

By IC50 is commonly meant the concentration at which inhibition is half-maximal. Turning to `CCCCCc1ccccc1CCC(=O)N[C@@H]1C(=O)N(C)/C(=C/c2ccc(O)cc2)C(=O)N[C@@H](CC(C)C)C(=O)N[C@H](Cc2ccccc2)C(=O)N[C@@H]([C@H](C)O)C(=O)N[C@@H](CC(N)=O)C(=O)N[C@@H](CO)C(=O)O[C@@H]1C` [Tetrahydro-WS-9326A, tetrahydro-WS-9326A] (X2-T[X1]L[dF][aThr]NS; ester 1-C; N-terminus assumed), the 50% inhibitory concentration (IC50) in data set [1] amounted to 3.1e-06 M. The “Inhibition (%) of neurokinin A (1 n mol/kg, iv) response” value is reported as 41.0 ± 5.6% in data set [2] (2 minutes); 100.0 ± 0.0% in data set [2] (17 minutes); 99.2 ± 0.8% in data set [2] (32 minutes); 98.4 ± 1.6% in data set [2] (47 minutes); 100.0 ± 0.0% in [2] (62 minutes). The “Inhibition (%) of neurokinin A response” value in data set [3] (intratrachea 0.003 mg/kg in DMSO, 20 minutes) turned out to be 5.4%; in [3] (intratrachea 0.003 mg/kg in DMSO, 35 minutes) it was 23.5%; in data set [3] (intratrachea 0.003 mg/kg in DMSO, 50 minutes), 17.2%; in [3] (intratrachea 0.003 mg/kg in DMSO, 65 minutes), 12.6%; in [3] (setting [10]), 50.0%; in data set [3] (setting [11]), 50.9%. The “Inhibition (%) of neurokinin A response” value in [3] (setting [12]) was 51.4%; in data set [3] (setting [13]) it was 43.0%; in [3] (setting [14]) it was 77.7%; in data set [3] (setting [15]) it was 75.7%; in data set [3] (setting [16]), 74.6%; in data set [3] (setting [17]), 71.1%. The “Effect of intratrachea administration on neurokinin A induced bronchoconstriction (in words)” value in data set [3] is listed as “highly potent”. Further, the “ED50, acetic acid induced writhing” value in data set [4] is reported as 5.5 mg/kg.
The LD50 is the dose at which mortality reaches 50%. As for `CCC/C=C\c1ccccc1/C=C/C(=O)N[C@@H]1C(=O)N(C)/C(=C/c2ccc(O)cc2)C(=O)N[C@@H](CC(C)C)C(=O)N[C@H](Cc2ccccc2)C(=O)N[C@@H]([C@H](C)O)C(=O)N[C@@H](CC(N)=O)C(=O)N[C@@H](CO)C(=O)O[C@@H]1C` [WS-9326A] ({Cinnamoyl(2-(1Z-pentenyl))}-T[X1]L[dF][aThr]NS; ester 1-C; N-terminus assumed), the figures for the “Inhibition % NKA 10^-9 M” value in data set [5] (3 μg/ml), in [5] (10 μg/ml) and in [5] (30 μg/ml) were 44%, 79% and 100%, respectively. The IC50 in data set [5] (read-out: IC50 (M), NKA 10^-9 M induced contraction) came to 3.5e-06 M; in [1], 9.7e-06 M. For the same compound, the “Inhibition % SP 10^-8 M” value was -10% in data set [1] (3 μg/ml), 50% in data set [1] (10 μg/ml) and 63% in data set [1] (30 μg/ml). Also, the “Inhibition (%) of neurokinin A (1 n mol/kg, iv) response” value is -16.5 ± 5.6% in [2] (2 minutes); 30.2 ± 12.9% in data set [2] (17 minutes); 45.8 ± 13.8% in data set [2] (32 minutes); 55.4 ± 8.1% in data set [2] (47 minutes); 49.9 ± 13.4% in data set [2] (62 minutes). Also, the “Inhibition (%) of capsaicin (10 n mol/kg, iv) response” value in [6] (2 minutes) was found to be 16.6 ± 5.1%; in data set [6] (17 minutes) it was 40.6 ± 12.2%; in data set [6] (32 minutes) it was 51.2 ± 10.4%; in data set [6] (47 minutes), 37.2 ± 19.7%; in data set [6] (62 minutes), 47.1 ± 16.7%. The “Inhibition (%) of neurokinin A response” value in [3] (setting [10]) turned out to be 32.3%; in data set [3] (setting [11]), 28.4%; in [3] (setting [12]), 35.6%; in [3] (setting [13]), 35.5%; in data set [3] (setting [14]), 50.6%; in [3] (setting [15]), 42.4%. Besides, the “Inhibition (%) of neurokinin A response” value in data set [3] (setting [16]) is 44.9%; in [3] (setting [17]) it was 42.0%; in data set [3] (intratrachea 3 mg/kg in DMSO, 20 minutes), 73.4%; in data set [3] (intratrachea 3 mg/kg in DMSO, 35 minutes) it was 79.4%; in data set [3] (intratrachea 3 mg/kg in DMSO, 50 minutes), 81.7%; in data set [3] (intratrachea 3 mg/kg in DMSO, 65 minutes), 77.7%. Also, the “Effect of intratrachea administration on neurokinin A induced bronchoconstriction (in words)” value in data set [3] is recorded as “highly potent”. In addition, the “ED50 mg/kg, inhibition of neurokinin A response” value turned out to be 0.23 mg/kg in data set [3] (20 minutes), 0.29 mg/kg in [3] (35 minutes), 0.19 mg/kg in data set [3] (50 minutes) and 0.24 mg/kg in data set [3] (65 minutes). The compound further came in with an LD50 in data set [7] of 250 to 500 mg/kg. The Solubility result is “Sparingly Soluble” in data set [8] (acetone); “Insoluble” in data set [8] (chloroform); “Soluble” in [8] (ethanol); “Sparingly Soluble” in data set [8] (ethyl acetate); “Soluble” in [8] (methanol); “Insoluble” in [8] (water).
`CCC/C=C\c1ccccc1/C=C/C(=O)N[C@@H]1C(=O)N(C)[C@@H](Cc2ccc(O)cc2)C(=O)N[C@@H](CC(C)C)C(=O)N[C@H](Cc2ccccc2)C(=O)N[C@@H]([C@H](C)O)C(=O)N[C@@H](CC(N)=O)C(=O)N[C@@H](CO)C(=O)O[C@@H]1C` [WS-9326B] ({Cinnamoyl(2-(1Z-pentenyl))}-T[NMeY]L[dF][aThr]NS; ester 1-C): in data set [9], the IC50 is 8.8e-05 M. In addition, the Solubility entry in [8] (acetone) is given as “Insoluble”; in data set [8] (chloroform), “Insoluble”; in data set [8] (ethanol), “Sparingly Soluble”; in data set [8] (ethyl acetate), “Insoluble”; in [8] (methanol), “Soluble”; in data set [8] (water) it was “Insoluble”.
